Source: ChEMBL document CHEMBL5576084, “Development of chromone-thiazolidine-2,4-dione Knoevenagel conjugates as apoptosis inducing agents” (Bioorg Med Chem Lett, 2024)
Active and inactive are the calls of the source. The calls are words filed in the database; no cut-off is given here.

Experiments:
[1] = test system: A549; experiment: Cytotoxicity against human A549 cells assessed as inhibition of cell growth; type: functional, cell-based
[2] = test system: A549; experiment: Induction of ROS generation in human A549 cells assessed as fold change at 1.5 uM by DCFDA-H2 fluorescent dye based flow cytometric analysis relative to control; type: functional
[3] = test system: A549; experiment: Induction of apoptosis in human A549 cells assessed as reduction in green intensity at 1.5 uM by acridine orange/EtBr staining based analysis; type: functional, cell-based
[4] = test system: A549; experiment: Induction of apoptosis in human A549 cells assessed as increase in yellowish green intensity at 1.5 uM by acridine orange/EtBr staining based analysis; type: functional, cell-based
[5] = test system: A549; experiment: Induction of apoptosis in human A549 cells assessed as increase in late apoptotic cells by measuring orange red signals at 1.5 uM by acridine orange/EtBr staining based analysis; type: functional, cell-based
[6] = test system: A549; experiment: Induction of apoptosis in human A549 cells assessed as increase in necrotic cells by measuring red signals at 1.5 uM by acridine orange/EtBr staining based analysis; type: functional, cell-based
[7] = test system: A549; experiment: Induction of apoptosis in human A549 cells assessed as early apoptotic cells at 1.5 uM by Annexin V-FITC/PI staining based flow cytometric analysis (reference value: 0.32 %); type: functional
[8] = test system: A549; experiment: Induction of apoptosis in human A549 cells assessed as late apoptotic cells at 1.5 uM by Annexin V-FITC/PI staining based flow cytometric analysis (reference value: 0.19 %); type: functional
[9] = test system: A549; experiment: Induction of apoptosis in human A549 cells assessed as necrotic cells at 1.5 uM by Annexin V-FITC/PI staining based flow cytometric analysis (reference value: 0.46 %); type: functional
[10] = test system: A549; experiment: Induction of apoptosis in human A549 cells assessed as inhibition of Bcl-2 expression at 1.5 uM by PI staining based flow cytometric analysis relative to control; type: functional
[11] = test system: A549; experiment: Cell cycle arrest in human A549 cells assessed as increase in G0/G1phase cell frequency at 1.5 uM by PI staining based flow cytometric analysis relative to control; type: functional

Structure (SMILES): CC1(C)CCC(CN2CCN(c3ccc(C(=O)NS(=O)(=O)c4ccc(NCC5CCOCC5)c([N+](=O)[O-])c4)c(Oc4cnc5[nH]ccc5c4)c3)CC2)=C(c2ccc(Cl)cc2)C1 [VENETOCLAX]
- IC50 [1]: 1500 nM
- fold change (FC) [2]: 9.53
- Activity [3]: Active
- Activity [4]: Active
- Activity [5]: Active
- Activity [6]: Active
- Activity [7]: 1.5%
- Activity [8]: 4.9%
- Activity [9]: 5.5%
- inhibition at 1.5 µM [10]: 61.7%
- Activity [11]: 6.9%
